Results: ChEMBL document CHEMBL1147073, “Signal peptide peptidase and gamma-secretase share equivalent inhibitor binding pharmacology” (J Biol Chem, 2007)
Activity calls are given as the source filed them. No cut-off for these calls is given here.

What was measured:
Type in all cases: cell-based
[1] = target: Gamma-secretase; experiment: Displacement of [3H]L685458 from gamma-secretase in human THP1 cells; details: thp-1
[2] = Displacement of [3H]L685458 from human SPP expressed in HEK293 cells
[3] = target: Gamma-secretase; experiment: Displacement of [3H]IN973 from gamma-secretase in human THP1 cells; details: thp-1
[4] = test system: HEK293; experiment: Inhibition of SPP expressed in HEK293 cells at 10 uM in presence of Prl-PP peptide after 30 mins
[5] = Inhibition of SPP expressed in HEK293 cells in presence of Prl-PP peptide after 30 mins

IC50 [1] [nM]	IC50 [2] [µM]	IC50 [3] [nM]	IC50 [5] [µM]	Structure (SMILES)	Activity [4]
57100	45.2	332000		CSc1ccc(/C=C2/C(C)=C(CC(=O)O)c3cc(F)ccc32)cc1 [SULINDAC SULFIDE]	
25600	28.7	12		C[C@H](c1ccc(F)cc1CCCC(=O)O)N(c1cc(F)ccc1F)S(=O)(=O)c1ccc(Cl)cc1	inactive
> 100000	34.2	6.3		C[C@H](NC(=O)Cc1cc(F)cc(F)c1)C(=O)N[C@H](C(=O)OC(C)(C)C)c1ccccc1	inactive
4.3	0.01	72	10	CC(C)C[C@H](NC(=O)[C@H](Cc1ccccc1)C[C@@H](O)[C@H](Cc1ccccc1)NC(=O)OC(C)(C)C)C(=O)N[C@@H](Cc1ccccc1)C(N)=O	
8.7	0.0053	2060	2	CC(C)C[C@H](NC(=O)OCc1ccccc1)C(=O)N[C@@H](CC(C)C)C(=O)NCC(=O)CNC(=O)[C@H](CC(C)C)NC(=O)[C@H](CC(C)C)NC(=O)OCc1ccccc1	
510		1.2		C[C@H](NC(=O)[C@@H](O)c1cc(F)cc(F)c1)C(=O)N[C@@H]1C(=O)N(C)N=Cc2ccccc21	inactive

Structure (SMILES)	IC50 [1] [nM]	IC50 [2] [µM]	IC50 [3] [nM]	IC50 [5] [µM]	Activity [4]
CCC[C@H](C(N)=O)[C@@H](CC(C)C)C(=O)N[C@H]1N=C(c2ccccc2)c2ccccc2N(C)C1=O		0.56			inactive
